Reference: patent US20240270762A1, “PENICILLIN-BINDING PROTEIN INHIBITORS” (priority 2021, published 2024)
≈ marks a conversion by molar mass, not a printed value.

Columns and labels:
Type in all cases: cell-based
E. coli ATCC 25922 = test: microbe, parasite or virus in culture; conditions: Escherichia coli, ATCC25922, read-out: MIC E. coli 25922
E. coli AG100 = test: microbe, parasite or virus in culture; conditions: Escherichia coli, AG100, read-out: MIC E. coli AG100
E. coli 901C = test: microbe, parasite or virus in culture; conditions: Escherichia coli, read-out: MIC E. coli 901C
E. coli D22 = test: microbe, parasite or virus in culture; conditions: Escherichia coli, D22, read-out: MIC E. coli D22
E. coli AG100A = test: Broth microdilution MIC in CAMHB; conditions: Escherichia coli, read-out: MIC E. coli AG100A
K. pneumoniae 848844 = test: microbe, parasite or virus in culture; conditions: Klebsiella pneumoniae, 848844, read-out: MIC K. pneumoniae 848844
K. pneumoniae UMM = test: microbe, parasite or virus in culture; conditions: Klebsiella pneumoniae, read-out: MIC K. pneumoniae UMM
K. pneumoniae SI-117 = test: microbe, parasite or virus in culture; conditions: Klebsiella pneumoniae, SI117, read-out: MIC K. pneumoniae SI-117
P. aeruginosa ATCC 27853 = test: microbe, parasite or virus in culture; conditions: Pseudomonas aeruginosa, ATCC27853, read-out: MIC P. aeruginosa ATCC 27853
A. baumannii ATCC 19606 = test: microbe, parasite or virus in culture; conditions: Acinetobacter baumannii, ATCC19606, read-out: MIC, A. baumannii ATCC 19606
P. aeruginosa ATCC 35151 = test: microbe, parasite or virus in culture; conditions: Pseudomonas aeruginosa, ATCC35151, read-out: MIC P. aeruginosa ATCC 35151
[1] = system: P. aeruginosa (ΔmexAB-oprM); test: Broth microdilution MIC in CAMHB; conditions: Pseudomonas aeruginosa; read-out: MIC P. aeruginosa ΔmexAB-oprM
B. pseudomallei Bp82 = test: microbe, parasite or virus in culture; conditions: Burkholderia pseudomallei, BP82, read-out: Minimum inhibitory concentration, B. pseudomallei Bp82

| SMILES | MIC (B. pseudomallei Bp82) [µg/mL] | also measured |
| --- | --- | --- |
| CCN1CCN(C(=O)NC(C(=O)N[C@H]2Cc3cccc(C(=O)O)c3OB2O)c2ccc(P(=O)(O)O)c(F)c2O)C(=O)C1=O (stereo partly drawn) [Example 198, (3R)-3-(2-(4-ethyl-2,3-dioxopiperazine-1-carboxamido)-2-(3-fluoro-2-hydroxy-4-phosphonophenyl)acetamido)-2-hydroxy-3,4-dihydro-2H-benzo[e][1,2]oxaborinine-8-carboxylic acid] |  | MIC (E. coli ATCC 25922): > 128 µg/mL; MIC (E. coli AG100): > 128 µg/mL; MIC (E. coli 901C): < 1 µg/mL; MIC (E. coli D22): 8 to 16 µg/mL (≈ 12.9 to 25.7 µM); MIC (E. coli AG100A): 32 to 64 µg/mL (≈ 51.4 to 103 µM); MIC (K. pneumoniae 848844): > 128 µg/mL; MIC (K. pneumoniae UMM): 32 to 64 µg/mL (≈ 51.4 to 103 µM); MIC (K. pneumoniae SI-117): > 128 µg/mL; MIC (P. aeruginosa ATCC 27853): > 128 µg/mL; MIC (A. baumannii ATCC 19606): 32 to 64 µg/mL (≈ 51.4 to 103 µM); MIC (P. aeruginosa ATCC 35151): 8 to 16 µg/mL (≈ 12.9 to 25.7 µM); MIC [1]: > 128 µg/mL |
| CN(CCN1CCN(C(=O)N[C@@H](C(=O)N[C@H]2Cc3ccc(F)c(C(=O)O)c3OB2O)c2cc(F)c(O)c(O)c2Cl)C(=O)C1=O)Cc1cncc(O)c1 [Example 208, (R)-3-((R)-2-(2-chloro-5-fluoro-3,4-dihydroxyphenyl)-2-(4-(2-(((5-hydroxypyridin-3-yl)methyl)(methyl)amino)ethyl)-2,3-dioxopiperazine-1-carboxamido)acetamido)-7-fluoro-2-hydroxy-3,4-dihydro-2H-benzo[e][1,2]oxaborinine-8-carboxylic acid] | < 1 |  |
| O=C(NCCCN1CCN(C(=O)N[C@@H](C(=O)N[C@H]2Cc3ccc(F)c(C(=O)O)c3OB2O)c2cc(F)c(O)c(O)c2Cl)C(=O)C1=O)c1cccnc1 [Example 210, (R)-3-((R)-2-(2-chloro-5-fluoro-3,4-dihydroxyphenyl)-2-(4-(3-(nicotinamido)propyl)-2,3-dioxopiperazine-1-carboxamido)acetamido)-7-fluoro-2-hydroxy-3,4-dihydro-2H-benzo[e][1,2]oxaborinine-8-carboxylic acid] | < 1 |  |
| O=C(NCCCN1CCN(C(=O)NC(C(=O)N[C@H]2Cc3ccc(F)c(C(=O)O)c3OB2O)c2cc(F)c(O)c(O)c2Cl)C(=O)C1=O)c1nccs1 (stereo partly drawn) [Example 211, (3R)-3-(2-(2-chloro-5-fluoro-3,4-dihydroxyphenyl)-2-(2,3-dioxo-4-(3-(thiazole-2-carboxamido)propyl)piperazine-1-carboxamido)acetamido)-7-fluoro-2-hydroxy-3,4-dihydro-2H-benzo[e][1,2]oxaborinine-8-carboxylic acid] | < 1 |  |
| O=C(O)c1c(F)ccc2c1OB(O)[C@@H](NC(=O)C(NC(=O)N1CCN(CCCNC(=O)[C@@H]3CCCN3)C(=O)C1=O)c1cc(F)c(O)c(O)c1Cl)C2 (stereo partly drawn) [Example 212, (3R)-3-(2-(2-chloro-5-fluoro-3,4-dihydroxyphenyl)-2-(2,3-dioxo-4-(3-((S)-pyrrolidine-2-carboxamido)propyl)piperazine-1-carboxamido)acetamido)-7-fluoro-2-hydroxy-3,4-dihydro-2H-benzo[e][1,2]oxaborinine-8-carboxylic acid] | < 1 |  |
| O=C(NCCCN1CCN(C(=O)NC(C(=O)N[C@H]2Cc3ccc(F)c(C(=O)O)c3OB2O)c2cc(F)c(O)c(O)c2Cl)C(=O)C1=O)Nc1cccnc1 (stereo partly drawn) [Example 213, (3R)-3-(2-(2-chloro-5-fluoro-3,4-dihydroxyphenyl)-2-(2,3-dioxo-4-(3-(3-(pyridin-3-yl)ureido)propyl)piperazine-1-carboxamido)acetamido)-7-fluoro-2-hydroxy-3,4-dihydro-2H-benzo[e][1,2]oxaborinine-8-carboxylic acid] | < 1 |  |
| O=C(NCCN1CCN(C(=O)NC(C(=O)N[C@H]2Cc3ccc(F)c(C(=O)O)c3OB2O)c2cc(F)c(O)c(O)c2Cl)C(=O)C1=O)c1cccnc1 (stereo partly drawn) [Example 217, (3R)-3-(2-(2-chloro-5-fluoro-3,4-dihydroxyphenyl)-2-(4-(2-(nicotinamido)ethyl)-2,3-dioxopiperazine-1-carboxamido)acetamido)-7-fluoro-2-hydroxy-3,4-dihydro-2H-benzo[e][1,2]oxaborinine-8-carboxylic acid] | 8 to 16 (≈ 10.9 to 21.9 µM) |  |
| O=C(NCCN1CCN(C(=O)N[C@@H](C(=O)N[C@H]2Cc3ccc(F)c(C(=O)O)c3OB2O)c2cc(F)c(O)c(O)c2Cl)C(=O)C1=O)Nc1ccncc1 [Example 221, (R)-3-((R)-2-(2-chloro-5-fluoro-3,4-dihydroxyphenyl)-2-(2,3-dioxo-4-(2-(3-(pyridin-4-yl)ureido)ethyl)piperazine-1-carboxamido)acetamido)-7-fluoro-2-hydroxy-3,4-dihydro-2H-benzo[e][1,2]oxaborinine-8-carboxylic acid] | < 1 |  |
| O=C(O)c1c(F)ccc2c1OB(O)[C@@H](NC(=O)[C@H](NC(=O)N1CCN(CCNC(=O)[C@@H]3CCCN3)C(=O)C1=O)c1cc(F)c(O)c(O)c1Cl)C2 [Example 229, (R)-3-((R)-2-(2-chloro-5-fluoro-3,4-dihydroxyphenyl)-2-(2,3-dioxo-4-(2-((S)-pyrrolidine-2-carboxamido)ethyl)piperazine-1-carboxamido)acetamido)-7-fluoro-2-hydroxy-3,4-dihydro-2H-benzo[e][1,2]oxaborinine-8-carboxylic acid] | < 1 |  |
| O=C(NCCN1CCN(C(=O)NC(C(=O)N[C@H]2Cc3ccc(F)c(C(=O)O)c3OB2O)c2cc(F)c(O)c(O)c2Cl)C1=O)c1ccncc1 (stereo partly drawn) [Example 245, (3R)-3-(2-(2-chloro-5-fluoro-3,4-dihydroxyphenyl)-2-(3-(2-(isonicotinamido)ethyl)-2-oxoimidazolidine-1-carboxamido)acetamido)-7-fluoro-2-hydroxy-3,4-dihydro-2H-benzo[e][1,2]oxaborinine-8-carboxylic acid] | < 1 |  |
| O=C(NCCN1CCN(C(=O)NC(C(=O)N[C@H]2Cc3ccc(F)c(C(=O)O)c3OB2O)c2cc(F)c(O)c(O)c2Cl)C1=O)Nc1ccncc1 (stereo partly drawn) [Example 250, (3R)-3-(2-(2-chloro-5-fluoro-3,4-dihydroxyphenyl)-2-(2-oxo-3-(2-(3-(pyridin-4-yl)ureido)ethyl)imidazolidine-1-carboxamido)acetamido)-7-fluoro-2-hydroxy-3,4-dihydro-2H-benzo[e][1,2]oxaborinine-8-carboxylic acid] | < 1 |  |
| O=C(NCCN1CCN(C(=O)NC(C(=O)N[C@H]2Cc3ccc(F)c(C(=O)O)c3OB2O)c2cc(F)c(O)c(O)c2Cl)C1=O)Nc1cccnc1 (stereo partly drawn) [Example 251, (3R)-3-(2-(2-chloro-5-fluoro-3,4-dihydroxyphenyl)-2-(2-oxo-3-(2-(3-(pyridin-3-yl)ureido)ethyl)imidazolidine-1-carboxamido)acetamido)-7-fluoro-2-hydroxy-3,4-dihydro-2H-benzo[e][1,2]oxaborinine-8-carboxylic acid] | < 1 |  |
| O=C(NCCCN1CCN(C(=O)NC(C(=O)N[C@H]2Cc3ccc(F)c(C(=O)O)c3OB2O)c2cc(F)c(O)c(O)c2Cl)C1=O)c1ccncc1 (stereo partly drawn) [Example 256, (3R)-3-(2-(2-chloro-5-fluoro-3,4-dihydroxyphenyl)-2-(3-(3-(isonicotinamido)propyl)-2-oxoimidazolidine-1-carboxamido)acetamido)-7-fluoro-2-hydroxy-3,4-dihydro-2H-benzo[e][1,2]oxaborinine-8-carboxylic acid] | < 1 |  |
| O=C(NCCCN1CCN(C(=O)NC(C(=O)N[C@H]2Cc3ccc(F)c(C(=O)O)c3OB2O)c2cc(F)c(O)c(O)c2Cl)C1=O)c1nccs1 (stereo partly drawn) [Example 257, (3R)-3-(2-(2-chloro-5-fluoro-3,4-dihydroxyphenyl)-2-(2-oxo-3-(3-(thiazole-2-carboxamido)propyl)imidazolidine-1-carboxamido)acetamido)-7-fluoro-2-hydroxy-3,4-dihydro-2H-benzo[e][1,2]oxaborinine-8-carboxylic acid] | < 1 |  |
| O=C(NCCS(=O)(=O)N1CCN(C(=O)NC(C(=O)N[C@H]2Cc3ccc(F)c(C(=O)O)c3OB2O)c2cc(F)c(O)c(O)c2Cl)C1=O)c1cccnc1 (stereo partly drawn) [Example 262, (3R)-3-(2-(2-chloro-5-fluoro-3,4-dihydroxyphenyl)-2-(3-((2-(nicotinamido)ethyl)sulfonyl)-2-oxoimidazolidine-1-carboxamido)acetamido)-7-fluoro-2-hydroxy-3,4-dihydro-2H-benzo[e][1,2]oxaborinine-8-carboxylic acid] | < 1 |  |
| O=C(NCCS(=O)(=O)N1CCN(C(=O)N[C@@H](C(=O)N[C@H]2Cc3ccc(F)c(C(=O)O)c3OB2O)c2cc(F)c(O)c(O)c2Cl)C1=O)c1nccs1 [Example 264, (R)-3-((R)-2-(2-chloro-5-fluoro-3,4-dihydroxyphenyl)-2-(2-oxo-3-((2-(thiazole-2-carboxamido)ethyl)sulfonyl)imidazolidine-1-carboxamido)acetamido)-7-fluoro-2-hydroxy-3,4-dihydro-2H-benzo[e][1,2]oxaborinine-8-carboxylic acid] | < 1 |  |
